Holding throughout (assay type): cell-based
For one test, the system named is DMS53. Description: 10-day Cell Titre Glo combination screen. The following applies: Homo sapiens, DMS-53; DMS53 lung; monotherapy; read-out: mono AC50. The text has this:
(§1) The Highest Single Agent (HSA) model is used to determine a combination's synergy score (and is based simply on the intuition that if a combination's effect exceeds the effect level of each of its constituents, there must be some combination interaction). Mathematically, the HSA model describes simple superposition of the single agent curves:
(§2) where CX,Y are the concentrations of the X and Y compound, and IX and IY are inhibitions of the single agents at CX,Y. It is also useful to calculate a volume score (HSA Volume) between the data and the HSA surface to characterise the overall strength of combination effects. Empirically derived combination matrices are compared to their respective HSA additivity models constructed from experimentally collected single agent dose response curves. Summation of this excess additivity across the dose response matrix is referred to HSA Volume.
(§3) Potency shifting can also be scored using combination index (CI). For a chosen iso-effect level (ICut), CI is calculated as: […]
(§4) where (CX/ECX) for a particular data point is the ratio of the X compound's measured concentration to its effective concentration at the chosen effect level. The CI is a rough estimate of how much drug was needed in combination relative to the single agent doses required to achieve the chosen effect level. CI values in the range of 0.5-0.7 are typical for in vitro measurements of current clinical combinations. The CI error (σCI) is calculated using standard error propagation through the CI calculation based on the isobologram errors.
(§5) This combination screen was a 10-day assay using Cell Titre Glo as the readout for viability.
(§6) The assay was performed in 384 well plates, with 1 cell line and 4 drug-drug combinations per plate dosed in a 6×6 matrix. A day zero reading was measured to determine growth inhibition. GenedataScreener was used to input the raw values for every well, and the software was programmed to normalise the values to the day zero and DMSO control values.
(§7) The CellTiter-Glo® Luminescent Cell Viability Assay is a homogeneous method to determine the number of viable cells in culture based on quantitation of the ATP present, which signals the presence of metabolically active cells. It relies on the properties of a proprietary thermostable luciferase (Ultra-Glo™ Recombinant Luciferase), which generates a stable “glow-type” luminescent signal and improves performance across a wide range of assay conditions.
(§8) The following information was reported: Synergy scores (HSA); combination index values; AC50 (half-maximal activity concentration) monotherapy values.

In the next test the test system is NCI-H1573. Description: 10-day Cell Titre Glo combination screen. The following applies: Homo sapiens, NCI-H1573, 240 h, NCI-H1573 lung; monotherapy; read-out: mono AC50.
From the text: as §1, §2, §3, §4, §5, §6, §7, §8

In another test the test system is NCI-H1650. Description: 10-day Cell Titre Glo combination screen. The following applies: Homo sapiens, NCI-H1650, NCI-H1650 lung; monotherapy; read-out: mono AC50.
From the text: as §1, §2, §3, §4, §5, §6, §7, §8

For another test, the system named is NCI-H2009. The test is described as follows: 10-day Cell Titre Glo combination screen. The following applies: Homo sapiens; NCI-H2009 lung; monotherapy; read-out: mono AC50.
From the text: as §1, §2, §3, §4, §5, §6, §7, §8

The test system of another test is NCI-H322. Description: 10-day Cell Titre Glo combination screen. The following applies: NCI-H322, NCI-H322 lung; monotherapy; read-out: mono AC50.
From the text: as §1, §2, §3, §4, §5, §6, §7, §8

The test system of the next test is PC-9. Description: 10-day Cell Titre Glo combination screen. The note with it: Homo sapiens; PC-9 lung; monotherapy; read-out: mono AC50.
From the text: as §1, §2, §3, §4, §5, §6, §7, §8

The subject of a further test is DU4475. Description: 10-day Cell Titre Glo combination screen. The following applies: Homo sapiens, DU-4475; DU4475 breast; monotherapy; read-out: mono AC50.
From the text: as §1, §2, §3, §4, §5, §6, §7, §8

The next test concerns HCC1395. The test is described as follows: 10-day Cell Titre Glo combination screen. The note with it: Homo sapiens; HCC1395 breast; monotherapy; read-out: mono AC50.
From the text: as §1, §2, §3, §4, §5, §6, §7, §8

A further test has as its system HCC1569. Description: 10-day Cell Titre Glo combination screen. The note with it: Homo sapiens; HCC1569 breast; monotherapy; read-out: mono AC50.
From the text: as §1, §2, §3, §4, §5, §6, §7, §8

The test system of another test is HCC15. Description: 10-day Cell Titre Glo combination screen. The following applies: HCC15 lung; monotherapy; read-out: mono AC50.
From the text: as §1, §2, §3, §4, §5, §6, §7, §8

A further test deals with MCF7 T52. Description: 10-day Cell Titre Glo combination screen. The following applies: Homo sapiens; MCF7 T52 breast; monotherapy; read-out: mono AC50.
From the text: as §1, §2, §3, §4, §5, §6, §7, §8

For a further test, the system named is NCI-H1666. The test is described as follows: 10-day Cell Titre Glo combination screen. The note with it: Homo sapiens; NCI-H1666 lung; monotherapy; read-out: mono AC50.
From the text: as §1, §2, §3, §4, §5, §6, §7, §8

Another test concerns NCI-H1792. The test is described as follows: 10-day Cell Titre Glo combination screen. The following applies: Homo sapiens; NCI-H1792 lung; monotherapy; read-out: mono AC50.
From the text: as §1, §2, §3, §4, §5, §6, §7, §8

The next test relates to NCI-H23. The test is described as follows: 10-day Cell Titre Glo combination screen. The following applies: Homo sapiens; NCI-H23 lung; monotherapy; read-out: mono AC50.
From the text: as §1, §2, §3, §4, §5, §6, §7, §8

Test [1] relates to SUM149PT 53BP1 KO cell pools. The test is described as follows: Clonogenic proliferation assay (14 days, SRB). On the procedure: (§9) Parental BRCA1 mutant SUM149PT breast cancer cell line (Elstrodt 2006) were obtained from AstraZeneca Cell Bank at Alderley Park, Macclesfield. Cells were routinely grown in Ham's F12 media containing 5% foetal calf serum, 1% glutamine (2 mM), 500 ng/ml hydrocortisone and 5% insulin. SUM149PT 53BP1 WT (CNTR) and 53BP1 null (KO) cell pools were generated by CRISPR-Cas9 technology. Short guide (sg) RNA targeting TP53BP1 on exon 10 (GAGTAGATCGGAAAGCATC) and a non-targeting CNTR guide (GAGTAGATCGGAAAGCATC) were designed and cloned into a lentiviral vector containing a mClover3 cassette for green fluorescence signal and hygromycin cassette for selection (pKLV2-U6gRNA (Bbsl)-EF1a-mClover3-T2A-HygR-W). Lentiviruses were generated from both KO and CNTR (sg) RNA and Cas9 (pKLVEF1a-Cas9Bsd-W) plasmids and parental cells were transduced first with Cas9 lentiviruses followed by blasticidin selection and then with KO and CNTR lentiviruses followed by hygromycin selection. Loss of 53BP1 was verified by analysing 53BP1 protein expression from whole cell lysates by western blotting (Novus, NB100-304, 1:1000 dilution).
(§10) Cells were seeded onto 6-well plates, three replicates per cell line, and 24 hours later the cells were dosed with AZD6738/AZD5305. For monotherapies the cells were dosed with a 6-point concentration response of AZD6738 (0 to 0.64 μM) or AZD5305 (0 to 1 μM). For combination treatments single dose of AZD5305 (10 nM) was used with a 5-point concentration response of AZD6738 (0 to 0.64 μM) for 53BP1 KO cells. Cells were grown for 14 days for colony formation without media changes. Cells were fixed with 10% TCA (Tricloroacetic acid). 14 days after dosing any formed colonies were stained with 0.057% SRB (sulforhodamine B acid), imaged with GelCount™ (Oxford OPTRONIX) at 600 dpi resolution and the stained colony growth intensity was measured using plate reader with OD @[…]. Dose response curves were generated and IC50 concentrations were calculated using GraphPad PRISM software.

Test [2] has as its system SUM149PT 53BP1 WT (CNTR) cells. The test is described as follows: Clonogenic proliferation assay (14 days, SRB). The following applies: Homo sapiens; SUM149PT 53BP1 WT (CNTR); monotherapy; read-out: IC50, clonogenic growth. On the procedure:
as §9, §10

What is called AC50 is the concentration at which the activity in the assay is half-maximal. Turning to `CCc1cc2ccc(CN3CCN(c4ncc(C)n4C)CC3)cc2[nH]c1=O` [AZ14114554, 7-((4-(1,5-dimethyl-1H-imidazol-2-yl)piperazin-1-yl)methyl)-3-ethylquinolin-2 (1H)-one], the AC50 with DMS53 amounted to 62.2 nM; in the test with NCI-H1573, 19.6 nM; in the test on NCI-H1650 it was 63.2 nM; with NCI-H2009 it was 105 nM; in the test on NCI-H322, 1.23 nM; in the test on PC-9 it was 97100 nM.

As usually defined, the IC50 is the point on the concentration scale where inhibition reaches its midpoint. Regarding `CCc1cc2ncc(CN3CCN(c4ccc(C(=O)NC)nc4)CC3)cc2[nH]c1=O` [AZD5305, 5-{4-[(7-ethyl-6-oxo-5,6-dihydro-1,5-naphthyridin-3-yl)methyl]piperazin-1-yl}-N-methylpyridine-2-carboxamide], the AC50 turned out to be 120 nM in the test with DU4475; 5.73 nM in the test on HCC1395; 22100 nM in the test on HCC1569; 7.7 nM in the test on HCC15; 41.8 nM with MCF7 T52; 47.7 nM with NCI-H1573. The concentration at half-maximal activity (AC50) in the test with NCI-H1666 is 9.36 nM; in the test with NCI-H1792, 24.5 nM; in the test with NCI-H23, 4.13 nM. In addition, the “growth inhibition as monotherapy” value in test [1] (10 nM, cell pool not given) was “does not show growth inhibition”. Moreover, the “sensitivity, clonogenic growth” value in test [1] (SUM149PT 53BP1 KO, monotherapy) was “completely resistant”. The 50% inhibitory concentration (IC50) in [2] is about 6 nM.

The values above are taken from US20250352539A1, “COMBINATION THERAPY FOR TREATING CANCER” (AstraZeneca AB, priority 2022, published 2025).
